What was measured:
[1] = biological target: T1, human serum albumin (HSA) (Homo sapiens, UniProt P02768); experiment: HSA fluorescence quenching (steady-state fluorescence titration); format: binding; conditions: for KSV, Stern–Volmer quenching constant: HSA 4 μM, pH 7.4; for ΔH / ΔS: van't Hoff plot, 25–35 °C; for blue shift of HSA fluorescence emission maximum: λex 280 nm
T1 construct: purchased Sigma (St. Louis, MO, USA)
Method: Human serum albumin (HSA) emission spectra were recorded in the absence and presence of different amounts of acridine derivatives (3a–3d) at a range of 285 to 550 nm upon excitation at 280 nm. The emission maximum of fluorescence intensity of HSA was identified at 340 nm. […] The fluorescence intensity of HSA in the presence of the acridine derivatives decreases in the relation […], with decreases of 58%, 51%, 43% and 38%, respectively. Moreover, the reduction of fluorescence emission of HSA by derivatives 3a–3d was accompanied by an apparent change in the position of the maximum wavelength of the fluorescence emission, with a blue shift of 6 nm (3d) ≈ (3b) < 7 nm (3c) < 8 nm (3a).
The appearance of an isoactinic point at 430 nm might also indicate the existence of an equilibrium between bound and free drugs, with the presence of such an equilibrium possibly emphasizing the formation of the drug–protein complex. Fluorescence quenching can be divided into the two processes of dynamic and static quenching. In dynamic quenching, the fluorophore and quencher are in contact in an excited state, increasing the temperature and resulting in faster diffusion and a higher frequency of collision, which in turn increases the quenching constant. In comparison, static quenching is typical in complexes formed between the fluorophore and quencher in a ground state in which the increasing temperature weakens the stability of the complex. Quantitative analysis was performed by using the Stern–Volmer Equation (1):(1) F0/F=1+KSVQ=1+Kqτ0Q, where F0 and F represent the fluorescence intensity of HSA in the absence and presence of acridine derivatives, respectively. KSV is the Stern–Volmer dynamic quenching constant which was determined from the plot of relative intensity F0/F of fluorescence vs. the concentration of the acridine derivative. Kq is the quenching rate constant of biomolecules, which is known to be around 2.0 × 10^10 M^−1 s^−1, and τ0 is the average lifetime of the fluorophore in the absence of the quencher, with a typical value equal to around 10^−8 for biomolecules. The quenching constant KSV of derivatives 3a–3d were of 10^5 M^−1. The KSV values recorded for derivatives 3a and 3b decreased at increasing temperatures, while those of derivatives 3c and 3d increased at increasing temperatures. The increased KSV values at increasing temperature in the presence of derivative 3c may indicate that the binding forces are mainly hydrophobic (endothermic apolar interactions are strengthened at increasing temperatures). Additionally, the Kq values obtained for HSA of 10^13 M^−1 s^−1 are greater than the limiting diffusion rate constant of diffusional quenching for biopolymers (2.0 × 10^10 M^−1 s^−1).
In order to evaluate the magnitude of the interaction, other parameters such as the binding constant ( Kb) and the number of binding sites (n) on the drug–HSA complex were calculated at three temperatures using Equation (2):(2) logF0−F/F=logKb+nlogQ, where F0 and F are the fluorescence intensity of the fluorophore (HSA) in the absence and presence of the quencher-acridine derivative, and [Q] is the quencher concentration. The values of Kb and n were determined using the linear regression of a plot of log(F0 − F/F) to log[Q] (Figure S3). […] Since the values of Kb were 10^5 M^−1 (3a–3c) or 10^4 M^−1 (3d), it would therefore be suitable for distribution in the plasma in vivo.
Based on the Kb dependency on temperature, it is, therefore, possible to analyse the temperature-dependent thermodynamic parameters which can be considered as responsible for the formation of a complex. […]

T1 sequence (P02768 25-609): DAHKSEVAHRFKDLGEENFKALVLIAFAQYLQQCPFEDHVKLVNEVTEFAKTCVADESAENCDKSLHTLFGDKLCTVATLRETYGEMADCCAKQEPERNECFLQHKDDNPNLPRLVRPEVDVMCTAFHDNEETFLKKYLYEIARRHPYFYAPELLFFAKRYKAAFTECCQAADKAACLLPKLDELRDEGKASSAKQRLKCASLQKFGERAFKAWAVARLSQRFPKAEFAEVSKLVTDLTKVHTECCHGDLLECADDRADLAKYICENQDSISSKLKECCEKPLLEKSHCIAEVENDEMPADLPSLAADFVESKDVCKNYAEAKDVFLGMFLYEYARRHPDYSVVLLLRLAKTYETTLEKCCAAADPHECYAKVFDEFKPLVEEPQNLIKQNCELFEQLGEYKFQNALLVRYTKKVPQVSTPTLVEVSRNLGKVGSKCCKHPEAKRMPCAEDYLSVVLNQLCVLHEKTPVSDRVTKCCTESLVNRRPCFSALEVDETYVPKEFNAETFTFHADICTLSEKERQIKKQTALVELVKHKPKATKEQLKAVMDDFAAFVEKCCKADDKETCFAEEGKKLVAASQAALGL

For `O=C(N/N=C/c1cccc2cc3ccccc3nc12)c1ccc(Br)cc1` [3d, N′-[(E)-Acridin-4-ylmethylidene]-4-bromobenzohydrazide], the melting point was 269 to 270 °C, the “Kq, bimolecular quenching rate constant” value ([1]; 25 °C) was 1.16e+13 M⁻¹ s⁻¹ and the “n, number of binding sites” value ([1]; 25 °C) was 1.052. The ΔG ([1]; 25 °C) was -30.33 kJ/mol, the “KSV, Stern–Volmer quenching constant” value ([1]; 25 °C) was 116000 M⁻¹ and the “Kq, bimolecular quenching rate constant” value ([1]; 30 °C) was 2.06e+13 M⁻¹ s⁻¹. For the same molecule, the “n, number of binding sites” value ([1]; 30 °C) was 0.917, the ΔG ([1]; 30 °C) was -28.57 kJ/mol and the “KSV, Stern–Volmer quenching constant” value ([1]; 30 °C) was 206000 M⁻¹. The “Kq, bimolecular quenching rate constant” value ([1]; 35 °C) was 2.42e+13 M⁻¹ s⁻¹, the “n, number of binding sites” value ([1]; 35 °C) was 0.846 and the ΔG ([1]; 35 °C) was -26.81 kJ/mol. The “KSV, Stern–Volmer quenching constant” value ([1]; 35 °C) was 242000 M⁻¹, the ΔH [1] was -135.40 kJ/mol and the ΔS [1] was −352.39 ×10^−3 kJ mol^−1 K^−1. The “blue shift of HSA fluorescence emission maximum” value (shortened to “blue shift”) [1] was 6 nm.

In the case of `O=C(N/N=C/c1cccc2cc3ccccc3nc12)c1ccccc1` [3a, N′-[(E)-(Acridin-4-yl)methylidene]benzohydrazide], the melting point is reported as 235 to 236 °C, the “Kq, bimolecular quenching rate constant” value ([1]; 25 °C) is reported as 2.67e+13 M⁻¹ s⁻¹ and the “n, number of binding sites” value ([1]; 25 °C) is reported as 1.068. For the same molecule, the ΔG ([1]; 25 °C) was -33.13 kJ/mol, the “KSV, Stern–Volmer quenching constant” value ([1]; 25 °C) was 267000 M⁻¹ and the “Kq, bimolecular quenching rate constant” value ([1]; 30 °C) was 2.68e+13 M⁻¹ s⁻¹. The “n, number of binding sites” value ([1]; 30 °C) was 1.054, the ΔG ([1]; 30 °C) was -32.96 kJ/mol and the “KSV, Stern–Volmer quenching constant” value ([1]; 30 °C) was 268000 M⁻¹. The “Kq, bimolecular quenching rate constant” value ([1]; 35 °C) was 2.61e+13 M⁻¹ s⁻¹, the “n, number of binding sites” value ([1]; 35 °C) was 1.023 and the ΔG ([1]; 35 °C) was -32.79 kJ/mol. The “KSV, Stern–Volmer quenching constant” value ([1]; 35 °C) was 261000 M⁻¹, the ΔH [1] was -43.21 kJ/mol and the ΔS [1] was −33.80 ×10^−3 kJ mol^−1 K^−1. For the same molecule, the “KSV for the HSA-3a complex” value ([1]; without site marker) was 267000 M⁻¹, the “Kb for the HSA-3a complex” value ([1]; without site marker) was 610000 M⁻¹ and the “blue shift” value [1] was 8 nm.

In the case of `O=C(N/N=C/c1cccc2cc3ccccc3nc12)c1ccc(Cl)cc1` [3c, N′-[(E)-Acridin-4-ylmethylidene]-4-chlorobenzohydrazide], the melting point is reported as 266 to 267 °C, the “Kq, bimolecular quenching rate constant” value ([1]; 25 °C) is reported as 2.29e+13 M⁻¹ s⁻¹ and the “n, number of binding sites” value ([1]; 25 °C) is reported as 0.888. The ΔG ([1]; 25 °C) was -26.89 kJ/mol, the “KSV, Stern–Volmer quenching constant” value ([1]; 25 °C) was 229000 M⁻¹ and the “Kq, bimolecular quenching rate constant” value ([1]; 30 °C) was 2.48e+13 M⁻¹ s⁻¹. For the same molecule, the “n, number of binding sites” value ([1]; 30 °C) was 0.925, the ΔG ([1]; 30 °C) was -29.74 kJ/mol and the “KSV, Stern–Volmer quenching constant” value ([1]; 30 °C) was 248000 M⁻¹. The “Kq, bimolecular quenching rate constant” value ([1]; 35 °C) was 2.62e+13 M⁻¹ s⁻¹, the “n, number of binding sites” value ([1]; 35 °C) was 1.030 and the ΔG ([1]; 35 °C) was -32.58 kJ/mol. For the same molecule, the “KSV, Stern–Volmer quenching constant” value ([1]; 35 °C) was 262000 M⁻¹, the ΔH [1] was 142.55 kJ/mol and the ΔS [1] was 568.32 ×10^−3 kJ mol^−1 K^−1. For the same molecule, the “blue shift” value [1] was 7 nm.

For `O=C(N/N=C/c1cccc2cc3ccccc3nc12)c1ccc(F)cc1` [3b, N′-[(E)-Acridin-4-ylmethylidene]-4-fluorobenzohydrazide], the melting point was 229 to 230 °C, the “Kq, bimolecular quenching rate constant” value ([1]; 25 °C) was 1.51e+13 M⁻¹ s⁻¹ and the “n, number of binding sites” value ([1]; 25 °C) was 1.079. For the same molecule, the ΔG ([1]; 25 °C) was -32.05 kJ/mol, the “KSV, Stern–Volmer quenching constant” value ([1]; 25 °C) was 151000 M⁻¹ and the “Kq, bimolecular quenching rate constant” value ([1]; 30 °C) was 1.57e+13 M⁻¹ s⁻¹. For the same molecule, the “n, number of binding sites” value ([1]; 30 °C) was 1.061, the ΔG ([1]; 30 °C) was -31.84 kJ/mol and the “KSV, Stern–Volmer quenching constant” value ([1]; 30 °C) was 157000 M⁻¹. For the same molecule, the “Kq, bimolecular quenching rate constant” value ([1]; 35 °C) was 1.37e+13 M⁻¹ s⁻¹, the “n, number of binding sites” value ([1]; 35 °C) was 1.039 and the ΔG ([1]; 35 °C) was -31.62 kJ/mol. For the same molecule, the “KSV, Stern–Volmer quenching constant” value ([1]; 35 °C) was 137000 M⁻¹, the ΔH [1] was -44.94 kJ/mol and the ΔS [1] was −43.24 ×10^−3 kJ mol^−1 K^−1. The “blue shift” value [1] was roughly 6 nm.

Reference: PMC9100673, “Acridine Based N-Acylhydrazone Derivatives as Potential Anticancer Agents: Synthesis, Characterization and ctDNA/HSA Spectroscopic Binding Properties” (Molecules, 2022)
